According to patent US10160716B2, “Compounds and methods of use thereof for treating tumors” (Georgetown University, priority 2012, dated 2018):

Experiments:
MCF-7 cells = test: E2 stimulated proliferation of MCF-7 cells (cell counts); type: cell-based, human
Excerpt: Briefly, cells were inoculated into 12-well dishes at 1×10^4 cells per well on day 0 in 5% charcoal-stripped serum (CSS). […] Triplicate wells were counted on days 1-4 to determine the effect of 103(f) on cell growth.

ER-α = molecular target: T1, ER-α (Homo sapiens, UniProt P03372); test: ERE-TK-Luc reporter assay of E2-stimulated ER-α transcriptional activity in MCF-7 cells; type: cell-based; settings: for IC80: MCF7, read-out: IC80 (concentration required for inhibition of ER-α activity by 80%); for IC50: read-out: IC50 (concentration required for inhibition of ER-α activity by 50%)
T1 construct: endogenous in cells; host or cells: MCF-7
T1 sequence (P03372 1-595): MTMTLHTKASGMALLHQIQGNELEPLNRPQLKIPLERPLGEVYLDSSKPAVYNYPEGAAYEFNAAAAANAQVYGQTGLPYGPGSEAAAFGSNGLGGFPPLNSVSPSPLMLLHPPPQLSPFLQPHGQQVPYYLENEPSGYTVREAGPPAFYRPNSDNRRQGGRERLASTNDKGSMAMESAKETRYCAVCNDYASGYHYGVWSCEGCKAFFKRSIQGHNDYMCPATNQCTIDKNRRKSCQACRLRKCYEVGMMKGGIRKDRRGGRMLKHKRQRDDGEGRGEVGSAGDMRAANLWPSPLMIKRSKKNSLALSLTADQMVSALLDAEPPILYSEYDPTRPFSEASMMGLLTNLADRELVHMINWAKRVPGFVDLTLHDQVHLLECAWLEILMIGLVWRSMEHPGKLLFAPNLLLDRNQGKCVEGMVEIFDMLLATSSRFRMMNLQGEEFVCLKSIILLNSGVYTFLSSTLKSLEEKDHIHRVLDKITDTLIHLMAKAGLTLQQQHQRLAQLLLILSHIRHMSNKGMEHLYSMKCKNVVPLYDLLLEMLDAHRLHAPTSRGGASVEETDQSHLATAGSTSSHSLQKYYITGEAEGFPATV
Protocol: Briefly, MCF7 or T47D cells are transfected overnight with an ERE-TK-Luc reporter construct. An ERE-TK-Luc construct contains an estrogen response element (ERE) upstream of a minimal thymidine kinase (TK) promoter that drives the expression of the luciferase (Luc) reporter gene. After transfection, the cells are subsequently washed and allowed to recover for several hours. […] The cells are subsequently harvested for luciferase reporter assays.
Three compounds were tested for their ability to inhibit ER-α activity. […] Initially, each compound was tested at doses of 1 μM and 50 μM.

LCC9 = settings: LCC9, ER-α +; cited from earlier work
LCC1 = settings: LCC1, ER-α +; cited from earlier work
LCC2 = settings: LCC2, ER-α +; cited from earlier work
MCF-7 = settings: MCF-7, ER-α +; cited from earlier work

Structure (SMILES): CC(C)=CC1C(COC(=O)c2cc3c(cc2Cl)OCO3)C1(C)C (stereo not drawn) [Compound 103(f)]
- effect on E2-stimulated cell growth (MCF-7 cells; 5 μM or 20 μM in the presence of 10 nM E2, P<0.01): blocked most of the E2-stimulated cell growth
- effect on cell growth, compound alone (MCF-7 cells; 5 μM or 20 μM, without E2, compared with DMSO, days 1-4): little or no effect on cell growth
- IC80 (ER-α): 5 µM
- IC50 (ER-α): 3 µM

Structure (SMILES): O=C(O)CCCc1ccc2ccccc2c1 [Compound 201]
- IC80 (ER-α): 50 µM
- IC50 (ER-α): 4 µM

Structure (SMILES): Nc1nc(Cc2ccccc2)nc(Cc2ccccc2)c1-c1ccccc1 [Compound 301]
- IC80 (ER-α): 40 µM
- IC50 (ER-α): 12 µM

Structure (SMILES): C[C@]12CC[C@@H]3c4ccc(O)cc4CC[C@H]3[C@@H]1CC[C@@H]2O [Compound E2, 17β-estradiol]
- cell density by day 4 (MCF-7 cells; DMSO+E2 (10 nM), seeded 1×10^4 cells per well, 2% CSS): 9×10^4 cells per well
- Response to Estradiol (E2) (LCC9): E2-insensitive growth; some E2-responsive
- Response to Estradiol (E2) (LCC1): Partially E2-depenedent growth
- Response to Estradiol (E2) (LCC2): E2-dependent growth
- Response to Estradiol (E2) (MCF-7): E2-responsive; E2-dependent growth

Structure (SMILES): C[C@]12CC[C@@H]3c4ccc(O)cc4C[C@@H](CCCCCCCCC[S+]([O-])CCCC(F)(F)C(F)(F)F)[C@H]3[C@@H]1CC[C@@H]2O (stereo partly drawn) [Fulvestrant]
- Response to Fulvestrant (LCC9): Resistant
- Response to Fulvestrant (LCC1): Sensitive
- Response to Fulvestrant (LCC2): Sensitive
- Response to Fulvestrant (MCF-7): Sensitive

Structure (SMILES): CC/C(=C(\c1ccccc1)c1ccc(OCCN(C)C)cc1)c1ccccc1 [Tamoxifen]
- Response to Tamoxifen (LCC9): Resistant
- Response to Tamoxifen (LCC1): Sensitive
- Response to Tamoxifen (LCC2): Resistant
- Response to Tamoxifen (MCF-7): Sensitive
